The subject of one series is human Jurkat cells. As to the kind of experiment: Uptake of IgG2a-Alexa488 mediated by anti-IgG2a conjugates (flow cytometry). Type of series: cell-based. Conditions: 1 h and 24 h. Here is the method: The anti-IgG2a conjugates were bound to IgG2a-Alexa488, as follows: equal molar ratios of anti-IgG2a and IgG2a-Alexa488 were added in tissue culture media for 30 minutes at room temperature. The resulting anti-IgG2a:IgG2a antibody-Alexa488 compositions were added to human Jurkat cells (100 k cells/50 ul per well, n=2), and Alexa488 fluorescence levels were measured (via Alexa488 measurement) at 1 hour and 24 hours by flow cytometry. Because Alexa488 accumulates in cells, this presents a way to measure total intracellular uptake by cells over time.
In general terms: In flow cytometry, cells or beads pass a laser one at a time.

For series [1] the following is noted: mice, intravenous, 10 μg/mouse; serum rIgG1 at 0.5-24 hours; compared with Compound I-7 conjugate. On the procedure: A pharmacokinetic analysis of the rIgG1 (anti-IgG2a) antibody conjugates described in the previous example was performed in mice. In particular, C57B6 mice were intravenously administered each rIgG1 antibody conjugate at 10 μg/mouse (5 mice per group). Blood was collected at 0.5, 1, 2, 6, and 24 hours and serum rIgG1 was analyzed using an ELISA kit (Abcam) according to the manufacturer's instructions. Samples were run across 3 different plates with unconjugated rIgG1 controls (UNLB-anti-IgG2a rIgG1) included on all 3 plates.

The target of series [2] is T1, recombinant human CI-M6PR protein (Homo sapiens, UniProt P11717).
T1 construct: purchased R&D 6418-GR-050
T1 sequence (P11717 41-1365 limits assumed): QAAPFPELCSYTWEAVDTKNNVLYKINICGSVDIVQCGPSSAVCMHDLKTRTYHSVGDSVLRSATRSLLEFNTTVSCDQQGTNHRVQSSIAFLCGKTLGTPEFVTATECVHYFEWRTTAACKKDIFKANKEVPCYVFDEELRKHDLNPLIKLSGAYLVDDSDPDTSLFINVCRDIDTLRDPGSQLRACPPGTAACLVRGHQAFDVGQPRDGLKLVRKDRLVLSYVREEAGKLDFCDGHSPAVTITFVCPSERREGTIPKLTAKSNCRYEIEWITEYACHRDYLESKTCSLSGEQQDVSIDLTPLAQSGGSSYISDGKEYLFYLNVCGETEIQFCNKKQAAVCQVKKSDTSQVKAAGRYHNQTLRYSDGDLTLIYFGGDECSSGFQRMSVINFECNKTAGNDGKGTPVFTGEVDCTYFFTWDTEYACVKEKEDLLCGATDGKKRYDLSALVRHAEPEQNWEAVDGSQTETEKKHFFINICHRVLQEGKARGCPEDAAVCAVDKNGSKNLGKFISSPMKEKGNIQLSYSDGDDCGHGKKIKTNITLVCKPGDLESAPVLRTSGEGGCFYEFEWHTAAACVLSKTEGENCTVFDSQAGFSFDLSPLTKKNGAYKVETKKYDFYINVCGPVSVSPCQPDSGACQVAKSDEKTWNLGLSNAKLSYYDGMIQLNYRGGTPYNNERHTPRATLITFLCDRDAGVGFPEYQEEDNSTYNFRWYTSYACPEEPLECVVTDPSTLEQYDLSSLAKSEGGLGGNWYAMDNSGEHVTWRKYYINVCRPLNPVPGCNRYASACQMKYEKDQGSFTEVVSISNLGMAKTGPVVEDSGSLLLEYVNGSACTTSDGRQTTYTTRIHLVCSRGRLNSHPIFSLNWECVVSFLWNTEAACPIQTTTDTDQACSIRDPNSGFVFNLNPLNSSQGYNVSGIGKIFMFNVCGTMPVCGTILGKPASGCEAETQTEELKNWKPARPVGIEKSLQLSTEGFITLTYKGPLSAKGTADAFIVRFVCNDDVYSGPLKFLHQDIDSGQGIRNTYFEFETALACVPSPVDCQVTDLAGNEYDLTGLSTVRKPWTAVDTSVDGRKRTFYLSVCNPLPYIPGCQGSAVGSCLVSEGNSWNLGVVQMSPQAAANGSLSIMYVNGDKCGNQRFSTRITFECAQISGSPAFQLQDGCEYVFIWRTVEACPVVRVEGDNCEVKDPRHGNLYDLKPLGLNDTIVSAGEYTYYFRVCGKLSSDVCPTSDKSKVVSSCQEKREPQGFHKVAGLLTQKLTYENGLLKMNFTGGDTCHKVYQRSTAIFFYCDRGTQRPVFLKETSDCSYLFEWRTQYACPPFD
As to the kind of experiment: M6PR binding ELISA of matuzumab conjugates. Conditions: antibody conjugates of the ligand-linkers. On the procedure:
Binding affinity of matuzumab conjugated to ligand-linkers for M6PR was determined by ELISA using the following protocol: Nunc black solid bottom MaxiSorp plates were allowed to incubate overnight at 4° C. coated with 1 μg/mL of recombinant human CI-M6PR protein (R&D, 6418-GR-050) in 50 μL PBS. The next day, coating was decanted and plates were washed 3× with PBS. Wells were blocked with 350 μL of 3% BSA-PBS for 1 hour at room temperature. […] 50 μL of diluted conjugates were added to the plate and allowed to incubate at room temperature for 2 hours. After incubation, solutions in plate were decanted and washed with 350 μL of 0.05% PBS-Tween20 three times, drying the plate each wash on a clean paper towel. 50 μL of peroxidase AffiniPure Mouse Anti-Human IgG (Jackson Immuno, 209-035-088) diluted in 3% BSA-PBS to 0.2 μg/mL was added to the plate and allowed to incubate for 1 hour at room temperature in the dark. After incubation, solutions in plate were decanted and washed with 350 μL of 0.05% PBS-Tween20 3 times, drying the plate each wash on a clean paper towel. […] 50 μL of QuantaBlu solution was added to wells and allowed to incubate for 5-10 minutes at room temperature. After incubation, plates were read on a Perkin Elmer EnVision using photometric 340 and Umbelliferone 460 filter sets for excitation and emission, respectively. Data analysis and non-linear curve-fitting was performed using GraphPad Prism.
(ELISA stands for enzyme-linked immunosorbent assay.)

The next series concerns human HepG2 cells. As to the kind of experiment: Transduction efficiency of AAV8 particle conjugates in HepG2 cells (GFP). Type of series: cell-based. Conditions: increasing MOI, 72 hrs, compared with unconjugated AAV8. Here is the method:
Transduction efficiency of AAV8 particle conjugates was also measured in human HepG2 cells and compared to that of an unconjugated AAV-CMV-GFP control (“AAV8 GFP-UNLB”). HepG2 cells were transduced with increasing multiplicity of infection (MOI) of unconjugated AAV8, AAV8 conjugated to Compound I-7 (ITX-16590), and AAV conjugated to Compound I-124 (ITX-22701) or different molar rations of AAV8 conjugated to Compound I-124 (ITX-22701).
In performing the experiments described above, 2V6·11 cells (Elab Science) in DMEM (Gibco) with 10% fetal bovine serum (Gibco) were seeded onto 96-well plates (Nunc) at a concentration of 20 k cells/well 24 hours prior to infection. Jurkat cells (ATCC) in RPMI (Gibco) with 10% fetal bovine serum (Gibco) were seeded onto 96-well plates (Nunc) 1 h prior to transduction. HepG2 cells (ATCC) in EMEM (Gibco) with 10% fetal bovine serum (Gibco) were seeded onto 96-well plates (Nunc) 24 hours prior to infection. […]
After the incubation period, the medium was aspirated, the cells were washed with PBS and analyzed for GFP expression via flow cytometry on BioRad ZES Cell Analyzer (BioRad) or analyzed for luciferase levels using a luciferase assay kit (Promega) following manufacture's protocol and using a luminometer.

For `O=C(CCOCCOCCOCCOCCOCCOCCOCCOCCn1cc(CCO[C@H]2O[C@H](CCP(=O)(O)O)[C@@H](O)[C@H](O)[C@@H]2O)nn1)Oc1c(F)c(F)c(F)c(F)c1F` [Compound I-9], in the series with human Jurkat cells, the “intracellular uptake (Alexa488 fluorescence)” value (“intracellular uptake” below) is reported as “sufficiently robust uptake”. `O=C(CCN1C(=O)C=CC1=O)NCCOCCOCCOCCn1cc(CCO[C@H]2O[C@H](CCP(=O)(O)O)[C@@H](O)[C@H](O)[C@@H]2O)nn1` [Compound I-10]: the half-life in serum result in series [1] is “longer half-life”. The “binding affinity for M6PR” value in series [2] was “weaker binding affinity to M6PR compared to Compound I-7”. For `O=C(CCOCCn1cc(CCO[C@H]2O[C@H](CCP(=O)(O)O)[C@@H](O)[C@H](O)[C@@H]2O)nn1)Oc1c(F)c(F)c(F)c(F)c1F` [Compound I-11], the “intracellular uptake” value in the series with human Jurkat cells is on record as “sufficiently robust uptake”. In addition, in series [1], the half-life in serum result is given as “longer half-life”. The “binding affinity for M6PR” value in series [2] is reported as “weaker binding affinity to M6PR compared to Compound I-7”. Take `O=C(CCOCCOCCOCCN(CCOCCOCCOCCn1cc(CCO[C@H]2O[C@H](CCP(=O)(O)O)[C@@H](O)[C@H](O)[C@@H]2O)nn1)CCOCCOCCOCCn1cc(CCO[C@H]2O[C@H](CCP(=O)(O)O)[C@@H](O)[C@H](O)[C@@H]2O)nn1)Oc1c(F)c(F)c(F)c(F)c1F` [Compound I-12]: the “intracellular uptake” value with human Jurkat cells was “sufficiently robust uptake”. The half-life in serum result in series [1] is given as “longer half-life”. In series [2], the “binding affinity for M6PR” value is on record as “weaker binding affinity to M6PR compared to Compound I-7”. Consider `CC(=O)N[C@H]1[C@H](OCCCCC(=O)NCCCNC(=O)CCOCC(COCCC(=O)NCCCNC(=O)CCCCO[C@@H]2O[C@H](CO)[C@H](O)[C@H](O)[C@H]2NC(C)=O)(COCCC(=O)NCCCNC(=O)CCCCO[C@@H]2O[C@H](CO)[C@H](O)[C@H](O)[C@H]2NC(C)=O)NC(=O)CCCCCCCCCCC(=O)Oc2c(F)c(F)c(F)c(F)c2F)O[C@H](CO)[C@H](O)[C@@H]1O` [Compound I-124], for which, in the series on human HepG2 cells, the “transduction efficiency (percentage of GFP positive cells, MFI)” value is “greater transduction efficiency than unconjugated AAV8”.

B1: Compound I-11d4: "matuzumab-Compound I-11 (d4)" conjugate tested for M6PR binding (conjugate)
heavy: QVQLVQSGAEVKKPGASVKVSCKASGYTFTSHWMHWVRQAPGQGLEWIGEFNPSNGRTNYNEKFKSKATMTVDTSTNTAYMELSSLRSEDTAVYYCASRDYDYAGRYFDYWGQGTLVTVSSASTKGPSVFPLAPSSKSTSGGTAALGCLVKDYFPEPVTVSWNSGALTSGVHTFPAVLQSSGLYSLSSVVTVPSSSLGTQTYICNVNHKPSNTKVDKKVEPKS
light: DIQMTQSPSSLSASVGDRVTITCSASSSVTYMYWYQQKPGKAPKLLIYDTSNLASGVPSRFSGSGSGTDYTFTISSLQPEDIATYYCQQWSSHIFTFGQGTKVEIKRTVAAPSVFIFPPSDEQLKSGTASVVCLLNNFYPREAKVQWKVDNALQSGNSQESVTEQDSKDSTYSLSSTLTLSKADYEKHKVYACEVTHQGLSSPVTKSFNRGE
modifications: left off: a dimerising Fc or GST
On to B1, for which the “binding affinity for M6PR” value in series [2] was “lowest”.

Source of the values: patent publication US20230226214A1, “BIFUNCTIONAL BRIDGING COMPOSITIONS FOR VIRAL TRANSDUCTION” (Lycia Therapeutics, Inc., priority 2020, published 2023).
